This note sets out measurements from article PMC3216550 (Scientific Reports, 2011).

One data set concerns the target T1, paAzoR1 (Pseudomonas aeruginosa, UniProt Q9I5F3).
T1 sequence (Q9I5F3 1-212): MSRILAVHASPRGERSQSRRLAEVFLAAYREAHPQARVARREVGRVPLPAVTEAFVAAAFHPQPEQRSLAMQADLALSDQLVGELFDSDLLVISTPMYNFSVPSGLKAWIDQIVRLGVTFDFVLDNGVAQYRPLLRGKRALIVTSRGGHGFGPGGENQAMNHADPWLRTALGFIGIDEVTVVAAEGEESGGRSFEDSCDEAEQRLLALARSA
Description: X-ray crystal structure, […] Å. Particulars: complex with nitrofurazone; FMN in active site. The data set is classed as binding.

Substrate in the data set “purified protein”: NC(=O)N/N=C/c1ccc([N+](=O)[O-])o1
The data set can be described thus: purified protein. Particulars: 750 μM NADPH, 20 mM Tris-HCl pH 8.0, 100 mM NaCl.

`Cc1cc2nc3c(=O)[nH]c(=O)nc-3n(C[C@H](O)[C@H](O)[C@H](O)COP(=O)(O)O)c2cc1C` [FMN]: on paAzoR1, the “X-ray crystal structure, 2.08 Å” value is “The FMN is shown with yellow carbon atoms”.

B1: paAzoR1 (Pseudomonas aeruginosa PAO1) (protein)
chain: T1 sequence (Q9I5F3 1-212)
In the case of B1, in “purified protein”, the Km – broadly, the substrate concentration at which the rate is half of its maximum – is 15.7 ± 1.6 µM.
